The source of these data is US12590061B2, “Crystalline form of acetylcholinesterase inhibitor and preparation method therefor and application thereof” (SHANGHAI INSTITUTE OF MATERIA MEDICA, CHINESE ACADEMY OF …, priority 2019, dated 2026).

Values after ≈ are worked out from the molar mass of the structure shown. Read-outs that look alike come from different tables or passages of the source.

Common to all, as to format: physicochemical
Data set [1] in a line: Solubility experiment of each crystalline form in water.
A short description of data set [2]: Dynamic Vapor Sorption (DVS) / hygroscopicity test. To be noted: for Humidity change (DVS): within the conventional storage humidity range. The procedure:
Dynamic Vapor Sorption (DVS) test/Hygroscopicity test is a rapid measurement of the increase and loss of sample moisture caused by a flowing carrier gas with a set relative humidity (RH). The hygroscopicity of the sample is then determined by measuring the increase/decrease in the mass of the material to detect the adsorption/desorption of water vapor on a high-sensitivity, high-stability digital microbalance in a self-suspended state.
In the present invention, the test parameters of DVS are as follows: instrument model: SMS DVS Intrinsic; measurement temperature 25° C., 0-95% RH.

Data set [3] can be described thus: Crystal transformation experiment (suspension stirring, XRPD). The procedure:
Form A and Form B were mixed in equal amounts, and mixed in EA/Hep(1:1) to give a suspension, and XRPD test is performed after stirring at normal temperature (25° C.) for three days.

As a reminder, the Solubility is the concentration that dissolves in the medium under given conditions. For `COc1cc2c(cc1OC)C(=O)C(CC1(F)CCN(Cc3ccccc3F)CC1)C2` (single isomer, unassigned) [Form A], the Solubility in data set [1] (Pure water) was 0.14 mg/mL (≈ 0.337 mM); in data set [1] (water, pH 2.01, aqueous buffer, thermodynamic from solid, pH 2.01, read-out: Solubility), 12.3 mg/mL (≈ 29.7 mM); in data set [1] (water, pH 4.59, aqueous buffer, thermodynamic from solid, pH 4.59, read-out: Solubility), 1.86 mg/mL (≈ 4.48 mM); in data set [1] (water, pH 6.74, aqueous buffer, thermodynamic from solid, pH 6.74, read-out: Solubility), 0.14 mg/mL (≈ 0.337 mM). The “Change in hygroscopicity (weight change, DVS)” value in data set [2] (0-95% relative humidity, 25° C.) is “about 0.6%”. For the same molecule, the “Stability order of the three crystalline forms” value (from here on “Stability order”) in data set [3] is “Form A>Form B>Form C”.
For the molecule `COc1cc2c(cc1OC)C(=O)C(CC1(F)CCN(Cc3ccccc3F)CC1)C2` (single isomer, unassigned) [Form B], the Solubility is 0.0089 mg/mL (≈ 0.0214 mM) in data set [1] (Pure water), 20.5 mg/mL (≈ 49.3 mM) in data set [1] (pH 2.01), 2.79 mg/mL (≈ 6.72 mM) in data set [1] (pH 4.59) and 0.18 mg/mL (≈ 0.433 mM) in data set [1] (pH 6.74). Further, in data set [2], the “Humidity change (DVS)” value stood at 1%. The “Stability order” value in data set [3] is listed as “Form A>Form B>Form C”.
As for `COc1cc2c(cc1OC)C(=O)C(CC1(F)CCN(Cc3ccccc3F)CC1)C2` (single isomer, unassigned) [Form C], in data set [1] (in water, Form C becomes Form B after being transformed), the “Solubility compared with other form” value is recorded as “the same as Form B”. In addition, the “Humidity change (DVS)” value in data set [2] was 1.2%. Moreover, the “Stability order” value in data set [3] was “Form A>Form B>Form C”. In addition, the Crystal form transformation result in data set [3] (metastable crystalline) is reported as “transfers to Form B”.
